{
  "source": "PubChem BioAssay (NCI)",
  "key": {"SN12K1 renal": {"test_system": "SN12K1 renal", "assay": "NCI tumour cell line growth inhibition, 48 h"}, "P388/ADR leukemia": {"test_system": "P388/ADR leukemia", "assay": "NCI tumour cell line growth inhibition, 48 h"}},
  "note": "Several values for one entry are separate records, joined by “and”; a condition that tells them apart may be missing. Equal entries are not always repeated.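 Five concentrations, 48 hours, 96-well plates. Here, GI50 denotes the concentration required for 50% inhibition of growth. TGI: total growth inhibition.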",
  "data": [
    {"smiles": "CSC1SCC2C(=O)N(C)C(C(C)C)C(=O)OCC(NC(=O)c3cnc4ccccc4n3)C(=O)NC(C)C(=O)N(C)C1C(=O)N(C)C(C(C)C)C(=O)OCC(NC(=O)c1cnc3ccccc3n1)C(=O)NC(C)C(=O)N2C", "note": "(centres undefined)", "values": [
      {"measurement": "GI50", "setting": "SN12K1 renal", "value": 0.567, "unit": "nM"},
      {"measurement": "TGI", "setting": "SN12K1 renal", "value": "24.8 nM and 80.1 nM"},
      {"measurement": "GI50", "setting": "P388/ADR leukemia", "value": 7.5, "unit": "nM"},
      {"measurement": "TGI", "setting": "P388/ADR leukemia", "value": "49 nM and 34.8 nM"}
    ]}
  ]
}
